Assay results taken from the supplement of paper PMC10307832.

Tests used:
Test in all cases: relative viability (nuclei count vs DMSO), 5 days (fraction); higher = more cells survive
Dabrafenib + Trametinib = compound: CC(C)(C)c1nc(-c2cccc(NS(=O)(=O)c3c(F)cccc3F)c2F)c(-c2ccnc(N)n2)s1 [Dabrafenib] + CC(=O)Nc1cccc(-n2c(=O)n(C3CC3)c(=O)c3c(Nc4ccc(I)cc4F)n(C)c(=O)c(C)c32)c1 [Trametinib] (partner 0.02 µM)
Procedure, shortened: (§1)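 Lung cancer cell lines were seeded in 1536-well plates and dosed by pin tool the next day, with either a single drug or a fixed anchor-drug dose combined with five library-drug doses (not always all listed) spaced in √10 steps. Five days later, one step fixed the cells and stained their nuclei (final 0.05% Triton X-100, 1% formaldehyde, 1 ug/ml Hoechst), and nuclei were counted on 4× images. Relative viability is the nuclei count in treated wells divided by the count in vehicle wells, and each value is the median of duplicate plates.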

Dabrafenib + Pictilisib = compound: CC(C)(C)c1nc(-c2cccc(NS(=O)(=O)c3c(F)cccc3F)c2F)c(-c2ccnc(N)n2)s1 [Dabrafenib] + CS(=O)(=O)N1CCN(Cc2cc3nc(-c4cccc5[nH]ncc45)nc(N4CCOCC4)c3s2)CC1 [Pictilisib] (partner 1 µM)
Procedure, shortened: as §1

Dabrafenib + AZD7762 = compound: CC(C)(C)c1nc(-c2cccc(NS(=O)(=O)c3c(F)cccc3F)c2F)c(-c2ccnc(N)n2)s1 [Dabrafenib] + NC(=O)Nc1cc(-c2cccc(F)c2)sc1C(=O)N[C@H]1CCCNC1 [AZD7762] (partner 0.2 µM)
Procedure, shortened: as §1

VX-702 + Phenformin = compound: NC(=O)c1ccc(N(C(N)=O)c2c(F)cccc2F)nc1-c1ccc(F)cc1F [VX-702] + N=C(N)NC(=N)NCCc1ccccc1 [Phenformin] (partner 250 µM)
Procedure, shortened: as §1

Row | Cell Line | relative viability (Dabrafenib + Trametinib; first compound 0.003 µM) | relative viability (Dabrafenib + Trametinib; first compound 0.009487 µM) | relative viability (Dabrafenib + Trametinib; first compound 0.03 µM) | relative viability (Dabrafenib + Trametinib; first compound 0.09487 µM) | relative viability (Dabrafenib + Trametinib; first compound 0.3 µM) | relative viability (Dabrafenib + Pictilisib; first compound 0.003 µM) | relative viability (Dabrafenib + Pictilisib; first compound 0.009487 µM) | relative viability (Dabrafenib + Pictilisib; first compound 0.03 µM) | relative viability (Dabrafenib + Pictilisib; first compound 0.09487 µM) | relative viability (Dabrafenib + Pictilisib; first compound 0.3 µM) | relative viability (Dabrafenib + AZD7762; first compound 0.003 µM) | relative viability (Dabrafenib + AZD7762; first compound 0.009487 µM) | relative viability (Dabrafenib + AZD7762; first compound 0.03 µM) | relative viability (Dabrafenib + AZD7762; first compound 0.09487 µM) | relative viability (Dabrafenib + AZD7762; first compound 0.3 µM) | relative viability (VX-702 + Phenformin; first compound 0.02 µM) | relative viability (VX-702 + Phenformin; first compound 0.2 µM) | relative viability (VX-702 + Phenformin; first compound 0.6325 µM) | relative viability (VX-702 + Phenformin; first compound 2 µM)
1 | CAL-12T | 0.327 | 0.319 | 0.382 | 0.334 | 0.445 | 0.319 | 0.392 | 0.395 | 0.57 | 0.535 | 0.59 | 0.626 | 0.661 | 0.594 | 0.703 | 0.699 | 0.55 | 0.609 | 0.632
2 | NCI-H1651 | 0.85 | 0.843 | 0.823 | 0.861 | 0.814 | 0.534 | 0.58 | 0.559 | 0.554 | 0.596 | 0.25 | 0.466 | 0.461 | 0.43 | 0.451 | 0.37 | 0.34 | 0.341 | 0.301
3 | RERF-LC-KJ | 0.811 | 0.939 | 0.961 | 0.944 | 1.05 | 0.575 | 0.592 | 0.455 | 0.616 | 0.748 | 0.871 | 1.01 | 0.907 | 0.916 | 1.35 | 0.401 | 0.449 | 0.369 | 0.517
4 | EKVX | – | 0.367 | 0.304 | 0.434 | 0.462 | 0.413 | 0.458 | 0.38 | 0.495 | 0.59 | – | 0.749 | 0.588 | 0.676 | 0.72 | 0.235 | 0.189 | 0.224 | 0.214
5 | EMC-BAC-2 | – | 0.827 | 1 | 1.03 | 1.2 | 0.52 | 0.434 | 0.389 | 0.585 | 0.623 | – | 1.13 | 0.967 | 0.728 | 0.782 | 0.522 | 0.549 | 0.526 | 0.402
6 | PC-3 [JPC-3] | – | 0.812 | 0.751 | 0.893 | 0.863 | 0.642 | 0.982 | 0.916 | 0.745 | 0.818 | – | 1.02 | 0.857 | 1.02 | 1.07 | 0.484 | 0.491 | 0.457 | 0.464
7 | HCC-78 | – | 0.688 | 0.668 | 0.761 | 0.89 | – | 0.235 | 0.192 | 0.276 | 0.219 | – | 0.683 | 0.466 | 0.563 | 0.872 | 0.63 | 0.823 | 0.689 | 0.676
8 | NCI-H647 | 0.42 | 0.394 | 0.306 | 0.579 | 0.553 | – | 0.347 | – | 0.531 | 0.388 | – | 0.437 | – | 0.32 | 0.43 | 0.487 | 0.654 | 0.46 | 0.728
9 | NCI-H1666 | 0.818 | 0.782 | 0.837 | 0.832 | 0.885 | 0.473 | – | 0.474 | 0.387 | 0.448 | 0.592 | 0.879 | 0.742 | 0.778 | 0.937 | 0.562 | – | 0.563 | 0.633
10 | NCI-H3122 | 0.273 | 0.209 | 0.159 | 0.212 | 0.238 | 0.581 | 0.629 | 0.793 | 0.692 | 0.719 | 0.508 | 1.03 | 1.06 | 0.986 | 1.07 | 0.409 | 0.388 | 0.44 | 0.424
11 | HCC-44 | 0.926 | 0.993 | 1.18 | 0.876 | 1.11 | 0.555 | 0.67 | 0.499 | 0.704 | 0.699 | 0.966 | 1.02 | 1.12 | 1.06 | 1 | 0.191 | 0.286 | 0.191 | 0.225
12 | NCI-H1915 | 0.295 | 0.249 | 0.264 | 0.288 | 0.313 | 0.902 | 1.06 | 0.862 | 0.758 | 0.578 | 0.712 | 0.653 | 0.368 | 0.268 | 0.282 | 0.366 | 0.374 | 0.363 | 0.384
13 | NCI-H358 | 0.109 | 0.116 | 0.159 | 0.162 | 0.178 | – | 0.307 | 0.339 | 0.405 | 0.282 | – | 0.866 | 0.6 | 0.637 | 0.775 | 0.318 | 0.293 | 0.289 | 0.429
14 | NCI-H1395 | – | 1.18 | 0.988 | 0.889 | 0.984 | – | 0.652 | 0.673 | 0.542 | 0.567 | – | 0.385 | 0.402 | 0.424 | 0.412 | 0.465 | 0.445 | 0.454 | 0.46
15 | NCI-H2126 | 0.468 | 0.532 | 0.475 | 0.6 | 0.619 | 0.46 | 0.514 | 0.529 | 0.543 | 0.595 | 0.872 | 1.11 | 1.02 | 0.94 | 1.01 | 0.545 | 0.521 | 0.51 | 0.507
16 | NCI-H596 | – | 0.84 | 0.707 | 0.747 | 0.704 | 0.372 | 0.364 | 0.194 | 0.397 | 0.423 | – | 1.2 | 0.958 | 1.14 | 1.16 | 0.587 | 0.749 | 0.797 | 0.742
17 | NCI-H23 | – | 0.425 | 0.364 | 0.34 | 0.508 | – | 0.465 | 0.461 | 0.455 | 0.503 | – | 0.207 | 0.205 | 0.254 | 0.217 | 0.787 | 0.77 | 0.884 | 0.875
18 | NCI-H650 | – | 0.913 | 1.01 | 0.942 | 1.04 | – | 0.977 | 0.878 | 0.688 | 0.661 | – | 1.08 | 0.82 | 0.663 | 0.724 | 0.515 | – | 0.44 | 0.524
19 | LCLC-103H | 0.635 | 0.707 | 0.614 | 0.684 | 0.701 | 0.556 | 0.657 | 0.426 | 0.721 | 0.71 | 0.703 | 0.834 | 0.701 | 0.794 | 0.761 | 0.344 | 0.344 | 0.316 | 0.325
20 | NCI-H441 | – | 0.53 | 0.54 | 0.681 | 0.829 | – | 0.54 | 0.406 | 0.374 | 0.401 | – | 1.22 | 1.02 | 1.03 | 1.34 | 0.829 | 0.992 | 0.687 | 0.918
21 | LK-2 | 0.692 | 0.925 | 0.473 | 0.774 | 0.934 | 0.552 | 0.614 | – | 0.587 | 0.748 | 0.125 | 0.449 | – | 0.433 | 0.467 | 0.38 | 0.478 | 0.354 | 0.387
22 | NCI-H2405 | – | 0.46 | 0.409 | 0.475 | 0.523 | – | 0.305 | – | 0.314 | 0.316 | – | 0.805 | 0.592 | 0.597 | 0.598 | 0.457 | 0.437 | 0.385 | 0.401
23 | HOP-62 | 0.352 | 0.41 | 0.36 | 0.429 | 0.469 | – | 0.843 | 0.648 | 0.581 | 0.727 | 0.088 | 0.449 | 0.493 | 0.424 | 0.452 | 0.809 | 0.656 | 0.698 | 0.708
24 | NCI-H1975 | 0.214 | 0.316 | 0.317 | 0.321 | 0.367 | 0.267 | 0.308 | 0.27 | 0.257 | 0.234 | 0.481 | 0.788 | 0.734 | 0.505 | 0.78 | 0.432 | 0.413 | 0.413 | 0.418
25 | NCI-H2085 | 0.523 | 0.583 | 0.46 | 0.589 | 0.633 | 0.381 | 0.481 | 0.328 | 0.452 | 0.462 | 0.724 | 1.11 | 1.01 | 0.874 | 1.01 | 0.718 | 0.728 | 0.704 | 0.702
26 | NCI-H460 | 0.144 | 0.171 | 0.115 | 0.317 | 0.341 | 0.194 | 0.352 | 0.245 | 0.653 | 0.553 | 0.282 | 0.616 | 0.546 | 0.556 | 0.493 | 0.532 | 0.551 | 0.608 | 0.373
27 | NCI-H1755 | 0.779 | 0.733 | 0.758 | 0.75 | 0.749 | 0.444 | 0.414 | 0.237 | 0.418 | 0.342 | 0.331 | 0.446 | 0.353 | 0.435 | 0.471 | 0.638 | 0.608 | 0.611 | 0.62
28 | PC-14 | – | 0.976 | 0.944 | 0.708 | 1 | 0.761 | 0.862 | 0.655 | 0.688 | 0.696 | 0.0746 | 0.375 | 0.363 | 0.297 | 0.414 | 0.618 | 0.547 | 0.689 | 0.483
29 | 201T | 0.723 | 0.744 | 0.654 | 0.685 | 0.751 | 0.665 | 0.711 | 0.607 | 0.65 | 0.71 | 0.28 | 0.711 | 0.59 | 0.461 | 0.475 | 0.43 | 0.457 | 0.453 | 0.434
30 | A-427 | 0.759 | 0.737 | 0.745 | 0.65 | 0.785 | – | 0.611 | 0.769 | 0.522 | 0.675 | 0.355 | 0.808 | 0.636 | 0.646 | 0.744 | 0.306 | 0.303 | 0.395 | 0.28
